From patent US10793582B2, “Bicyclic heterocyclic compound” (MITSUBISHI TANABE PHARMA CORPORATION, priority 2015, dated 2020)
Counter-ions that a name gives are not always drawn.

Target: human recombinant KAT-II (Homo sapiens (Human), UniProt Q8N5Z0)
Assay: KAT-II inhibitory test
Type: biochemical
Details: 3.0 μmol/L kynurenine, 37° C. for 1 hr, kynurenic acid by HPLC
Description: The compounds described in the above-mentioned Examples were used for the KAT-II inhibitory test.
Human recombinant KAT-II was prepared as follows.
His tag and maltose binding protein tag were added to the N-terminal of a gene encoding human KAT-II (Genbank accession number: AF481738.1), and the obtained gene was incorporated into pET32 (Merck Nihon Millipore), which is an Escherichia coli expression vector. Human recombinant KAT-II produced by BL21(DE3) Escherichia coli (Merck Nihon Millipore, 69450) transformed using the plasmid was purified using an amylose resin column (New England Biolabs, #800-21 L).
The inhibitory action of the test compound on human recombinant KAT-II was determined by the following method.
To a reaction mixture (45 μL) containing 3.0 μmol/L kynurenine, 10 μmol/L pyridoxal phosphate, 2.0 ng/μL human recombinant KAT-II, and 150 mmol/L tris(hydroxymethyl)aminomethane-acetate buffer (pH 8.0) was added a 10% dimethyl sulfoxide solution (5 μL) of each test compound prepared, and the mixture was reacted at 37° C. for 1 hr. After the reaction, 50% trichloroacetic acid (5 μL) was added to terminate the reaction.
The resultant kynurenic acid was quantified as follows by high performance liquid chromatography. An enzyme reaction mixture was separated by an octadecylsilane reversed-phase column (SC-50DS, Eicom Corporation; mobile phase: 250 mmol/L zinc acetate, 50 mmol/L sodium acetate, and 5.0% acetonitrile (pH 6.2)) incubated at 30° C., and kynurenic acid was quantified using a fluorescence detector (RF-20Axs, Shimadzu Corporation) at excitation wavelength 354 nm, detection wavelength 460 nm. The analytical curve was drawn every time by an external standard method. Each test compound was tested by dual measurement at each concentration. The kynurenic acid level in the presence of a test compound at each concentration was converted into % relative to kynurenic acid resulting from a reaction with an enzyme alone as 100%, and the obtained values were fitted to S-curve to determine IC50.

Chain of human recombinant KAT-II (Q8N5Z0 30-425): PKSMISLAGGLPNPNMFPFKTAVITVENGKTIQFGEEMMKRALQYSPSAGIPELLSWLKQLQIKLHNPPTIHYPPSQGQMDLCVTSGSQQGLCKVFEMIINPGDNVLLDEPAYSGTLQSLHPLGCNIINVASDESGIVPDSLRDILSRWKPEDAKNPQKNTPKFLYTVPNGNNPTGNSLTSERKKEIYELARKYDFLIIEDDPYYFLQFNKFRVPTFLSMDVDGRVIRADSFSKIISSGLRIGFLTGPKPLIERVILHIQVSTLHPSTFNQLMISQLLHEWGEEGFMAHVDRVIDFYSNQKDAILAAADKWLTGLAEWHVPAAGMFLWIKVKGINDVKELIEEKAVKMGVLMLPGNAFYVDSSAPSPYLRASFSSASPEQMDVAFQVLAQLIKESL

SMILES | IC50
O=C(NCc1ccccc1)[C@H]1CCCN1c1nc2nc(C(F)F)nc(C3CCOCC3)c2s1 [Example 55] | 410 nM
N#CC1(c2cnc3nc(N4CCC[C@@H]4C(=O)NCc4ccccc4)sc3c2)CCOCC1 [Example 116] | 90 nM
CN(C)Cc1nc(C2CC2)c2sc(N3CCC[C@@H]3C(=O)NCc3ccccc3)nc2n1 [Example 58] | 640 nM
O=C(NCc1ccccc1)[C@H]1CCCN1c1nc2ncnc(OC3CCC3)c2s1 [Example 89, (R)—N-benzyl-1-[7-(cyclobutyloxy)[1,3]thiazolo[4,5-d]pyrimidin-2-yl]pyrrolidine-2-carboxamide] | 46 nM
COCCN(c1nc2ncnc(C3CC3)c2s1)[C@H](C)C(=O)NCc1ccccc1 [Example 38] | 410 nM
CCOc1ncnc2nc(N3CCC[C@@H]3C(=O)NCc3ccccc3)sc12 [Example 19, (R)—N-benzyl-1-(7-ethoxy[1,3]thiazolo[4,5-d]pyrimidin-2-yl)pyrrolidine-2-carboxamide] | 37 nM
CC(C)(C#N)c1cnc2nc(N3CCC[C@@H]3C(=O)NCc3ccccc3)sc2c1 [Example 113, (R)—N-benzyl-1-[6-(2-cyanopropan-2-yl)[1,3]thiazolo[4,5-b]pyridin-2-yl]pyrrolidine-2-carboxamide] | 85 nM
O=C(NCc1ccccc1)[C@H]1CCCN1c1nc2ncnc(-c3ccccn3)c2s1 [Example 35] | 290 nM
COCc1ncnc2nc(N3CCC[C@@H]3C(=O)N[C@H](C)c3ccccc3)sc12 [Example 34] | 640 nM
O=C(NCc1ccccc1)[C@H]1CCCN1c1nc2nc(COC3CCOCC3)nc(C3CC3)c2s1 [Example 83] | 13 nM
O=C(NCc1ccccc1)[C@H]1CCCN1c1nc2ncnc(C3CC3)c2s1 [Example 23, (R)—N-benzyl-1-(7-cyclopropyl[1,3]thiazolo[4,5-d]pyrimidin-2-yl)pyrrolidine-2-carboxamide] | 26 nM
Cc1nc(-c2ccc(F)cc2)nc2nc(N3CCC[C@@H]3C(=O)NCc3ccccc3)sc12 [Example 78] | 550 nM
CCOc1nc(C)c2sc(N3CCC[C@@H]3C(=O)NCc3ccccc3)nc2n1 [Example 88] | 420 nM
CC(C)c1cnc2nc(N3CCC[C@@H]3C(=O)NCc3ccccc3)sc2c1 [Example 111] | 210 nM
CN(c1nc2ncnc(C3CC3)c2s1)[C@@H](C(=O)NCc1ccccc1)C1CC1 [Example 93] | 140 nM
O=C(NCc1ccccc1)[C@H]1CSCN1c1nc2ncnc(C3CC3)c2s1 [Example 100, (S)—N-benzyl-3-(7-cyclopropyl[1,3]thiazolo[4,5-d]pyrimidin-2-yl)-1,3-thiazolidine-4-carboxamide] | 240 nM
CCc1nc(-n2nccn2)nc2nc(N3CCC[C@@H]3C(=O)NCc3ccccc3)sc12 [Example 101, (R)—N-benzyl-1-[7-ethyl-5-(2H-1,2,3-triazol-2-yl)[1,3]thiazolo[4,5-d]pyrimidin-2-yl]pyrrolidine-2-carboxamide] | 150 nM
O=C(NCc1ccccc1)[C@H]1CCCN1c1nc2ncnc(OC3CCOCC3)c2s1 [Example 90] | 130 nM
CCc1nc(C2CC2)nc2nc(N3CCC[C@@H]3C(=O)NCc3ccccc3)sc12 [Example 41] | 170 nM
CCCc1ncnc2nc(N3CCC[C@@H]3C(=O)NCc3ccccc3)sc12 [Example 26] | 120 nM
N#CC1(c2cnc3nc(N4CCC[C@@H]4C(=O)NCc4ccccc4)sc3c2)CCC1 [Example 115] | 70 nM
COCC1(c2cnc3nc(N4CCC[C@@H]4C(=O)NCc4ccccc4)sc3c2)CC1 [Example 117] | 170 nM
Cc1nc(OC2CCOCC2)nc2nc(N3CCC[C@@H]3C(=O)NCc3ccccc3)sc12 [Example 84] | 390 nM
O=C(NCc1ccccc1)[C@H]1CCCN1c1nc2ncnc(OCC(F)(F)F)c2s1 [Example 70] | 160 nM
CC(C)c1ncnc2nc(N3CCC[C@@H]3C(=O)NCc3ccccc3)sc12 [Example 28] | 190 nM
O=C(NCc1ccccc1)[C@H]1CCCN1c1nc2ncc(C3(O)CCC3)cc2s1 [Example 126] | 190 nM
CC1(c2ncnc3nc(N4CCC[C@@H]4C(=O)NCc4ccccc4)sc23)CC1 [Example 31, (R)—N-benzyl-1-[7-(1-methylcyclopropyl)[1,3]thiazolo[4,5-d]pyrimidin-2-yl]pyrrolidine-2-carboxamide] | 65 nM
CC(C)(C#N)c1ncnc2nc(N3CCC[C@@H]3C(=O)NCc3ccccc3)sc12 [Example 76, (R)—N-benzyl-1-[7-(2-cyanopropan-2-yl)[1,3]thiazolo[4,5-d]pyrimidin-2-yl]pyrrolidine-2-carboxamide] | 1500 nM
CCc1ncnc2nc(N3CCC[C@@H]3C(=O)NCc3ccccc3)sc12 [Example 24] | 200 nM
Cc1nc2nc(N3CCC[C@@H]3C(=O)NCc3ccccc3)sc2c(=O)n1C [Example 109, (R)—N-benzyl-1-(5,6-dimethyl-7-oxo-6,7-dihydro[1,3]thiazolo[4,5-d]pyrimidin-2-yl)pyrrolidine-2-carboxamide] | 840 nM

Continued, values first:

IC50 | SMILES
150 nM | CCOc1c(COC)cnc2nc(N3CCC[C@@H]3C(=O)NCc3ccccc3)sc12 [Example 164]
2900 nM | Cc1cnc2nc([C@H]3CCCN3C(=O)Cc3ccccc3)sc2c1 [Example 196, 1-[(R)-2-(6-methyl[1,3]thiazolo[4,5-b]pyridin-2-yl)pyrrolidin-1-yl]-2-phenylethanone]
640 nM | Cc1nc(-c2cnc3nc(N4CCC[C@@H]4C(=O)NCc4ccccc4)sc3c2)no1 [Example 183, (R)—N-benzyl-1-[6-(5-methyl-1,2,4-oxadiazol-3-yl)[1,3]thiazolo[4,5-b]pyridin-2-yl]pyrrolidine-2-carboxamide]
490 nM | CCOc1cnc2nc(N3CCC[C@@H]3C(=O)NCc3ccccc3)sc2n1 [Example 190]
490 nM | Cc1cnc2nc(N3CCC[C@@H]3C(=O)NCc3ccccc3)sc2c1C#N [Example 136, (R)—N-benzyl-1-(7-cyano-6-methyl[1,3]thiazolo[4,5-b]pyridin-2-yl)pyrrolidine-2-carboxamide]
34 nM | CCc1c(-c2cnn(C)c2)cnc2nc(N3CCC[C@@H]3C(=O)NCc3ccccc3)sc12 [Example 170, (R)—N-benzyl-1-[7-ethyl-6-(1-methyl-1H-pyrazol-4-yl)[1,3]thiazolo[4,5-b]pyridin-2-yl]pyrrolidine-2-carboxamide]
210 nM | O=C(NCc1ccccc1)[C@H]1CCCN1c1nc2ncc(-c3ccccc3)nc2s1 [Example 189]
360 nM | O=C(NCc1ccccc1)[C@H]1CCCN1c1nc2ncc(CN3CCCCC3)c(C3CC3)c2s1 [Example 175, (R)—N-benzyl-1-[7-cyclopropyl-6-(piperidin-1-ylmethyl)[1,3]thiazolo[4,5-b]pyridin-2-yl]pyrrolidine-2-carboxamide hydrochloride]
900 nM | N#Cc1cnc2nc(N3CCC[C@@H]3C(=O)NCc3ccccc3Cl)sc2c1 [Example 178]
140 nM | CCc1cnc2nc(N3CCC[C@@H]3C(=O)NCc3ccccc3)sc2n1 [Example 187]
72 nM | O=C(NCc1ccccc1)[C@H]1CCCN1c1nc2ncc(C3CCOCC3)cc2s1 [Example 129]
7400 nM | Cc1cnc2nc([C@H]3CCCN3C(=O)NC3(c4ccccc4)CC3)sc2c1 [Example 203, (R)-2-(6-methyl[1,3]thiazolo[4,5-b]pyridin-2-yl)-N-(1-phenylcyclopropyl)-pyrrolidine-1-carboxamide]
81 nM | N#Cc1cnc2nc(N3CCC[C@@H]3C(=O)NCc3ccccc3)sc2c1C1CC1 [Example 161]
280 nM | COC1(c2cnc3nc(N4CCC[C@@H]4C(=O)NCc4ccccc4)sc3c2)CCC1 [Example 127]
300 nM | O=C(NCc1ccc(F)cc1)[C@H]1CCCN1c1nc2ncc(C3CC3)cc2s1 [Example 162, (R)-1-(6-cyclopropyl[1,3]thiazolo[4,5-b]pyridin-2-yl)-N-(4-fluorobenzyl)pyrrolidine-2-carboxamide]
200 nM | Cc1cnc2nc(N3CCC[C@@H]3C(=O)NCc3ccccc3)sc2c1 [Example 134]
300 nM | CCc1cnc2nc(N3CCC[C@@H]3C(=O)NCc3ccc(F)cc3)sc2n1 [Example 188]
3000 nM | Cc1cnc2nc([C@H]3CCCN3C(=O)Oc3ccccc3)sc2c1 [Example 197, phenyl (R)-2-(6-methyl[1,3]thiazolo[4,5-b]pyridin-2-yl) pyrrolidine-1-carboxylate]
910 nM | COCc1c(F)cnc2nc(N3CCC[C@@H]3C(=O)NCc3ccccc3)sc12 [Example 163, (R)—N-benzyl-1-[6-fluoro-7-(methoxymethyl)[1,3]thiazolo[4,5-b]pyridin-2-yl]pyrrolidine-2-carboxamide]
390 nM | Cc1nc(C(C)(C)c2cnc3nc(N4CCC[C@@H]4C(=O)NCc4ccccc4)sc3c2)no1 [Example 171, (R)—N-benzyl-1-{6-[2-(5-methyl-1,2,4-oxadiazol-3-yl)propan-2-yl][1,3]thiazolo[4,5-b]pyridin-2-yl}pyrrolidine-2-carboxamide]
